In the NIST ThermoML archive (doi:10.1021/je060271a):
Several values for one entry are separate records, joined by “and”; a condition that tells them apart may be missing. Equal entries are not always repeated.

Details: 303.16 K, Liquid, Vibrating tube method

CCCCCC(=O)OCC(COC(=O)CCCCC)(COC(=O)CCCCC)COC(=O)CCCCC [pentaerythritol tetrahexanoate]
Details | mass density
243.6 kPa | 988.4 kg/m3
243.8 kPa | 988.7 kg/m3
244.8 kPa | 988.5 kg/m3 and 988.6 kg/m3
245.2 kPa | 988.4 kg/m3 and 988.6 kg/m3
245.3 kPa | 988.5 kg/m3
245.5 kPa | 988.5 kg/m3
245.9 kPa | 988.5 kg/m3 and 988.6 kg/m3
246.2 kPa | 988.5 kg/m3
246.6 kPa | 988.5 kg/m3
246.7 kPa | 988.4 kg/m3
247.3 kPa | 988.6 kg/m3 and 988.5 kg/m3
247.4 kPa | 988.4 kg/m3
248.5 kPa | 988.5 kg/m3
248.8 kPa | 988.5 kg/m3
249.2 kPa | 988.4 kg/m3
249.3 kPa | 988.6 kg/m3
250.7 kPa | 988.5 kg/m3
251.1 kPa | 988.4 kg/m3
251.2 kPa | 988.6 kg/m3
251.4 kPa | 988.5 kg/m3
251.6 kPa | 988.5 kg/m3
251.9 kPa | 988.5 kg/m3
252.1 kPa | 988.5 kg/m3
252.3 kPa | 988.5 kg/m3
252.5 kPa | 988.6 kg/m3
252.6 kPa | 988.4 kg/m3
252.8 kPa | 988.6 kg/m3
253 kPa | 988.4 kg/m3
253.5 kPa | 988.5 kg/m3
253.7 kPa | 988.4 kg/m3
254 kPa | 988.5 kg/m3
254.2 kPa | 988.5 kg/m3
254.6 kPa | 988.4 kg/m3
254.7 kPa | 988.5 kg/m3
255.1 kPa | 988.6 kg/m3
255.2 kPa | 988.6 kg/m3
255.4 kPa | 988.5 kg/m3
255.6 kPa | 988.5 kg/m3
255.9 kPa | 988.5 kg/m3
256.3 kPa | 988.5 kg/m3
256.5 kPa | 988.5 kg/m3
256.6 kPa | 988.5 kg/m3
257 kPa | 988.6 kg/m3 and 988.5 kg/m3
257.3 kPa | 988.6 kg/m3
257.5 kPa | 988.5 kg/m3
257.8 kPa | 988.6 kg/m3 and 988.5 kg/m3
258 kPa | 988.5 kg/m3
258.4 kPa | 988.4 kg/m3
258.5 kPa | 988.5 kg/m3
258.7 kPa | 988.5 kg/m3
259.1 kPa | 988.7 kg/m3
259.4 kPa | 988.6 kg/m3 and 988.5 kg/m3
259.6 kPa | 988.6 kg/m3
259.8 kPa | 988.5 kg/m3
260.1 kPa | 988.5 kg/m3
260.3 kPa | 988.6 kg/m3
260.4 kPa | 988.4 kg/m3
260.8 kPa | 988.5 kg/m3 and 988.4 kg/m3
261.1 kPa | 988.5 kg/m3
261.3 kPa | 988.6 kg/m3
261.8 kPa | 988.5 kg/m3
262.5 kPa | 988.4 kg/m3 and 988.5 kg/m3
262.7 kPa | 988.5 kg/m3
263.1 kPa | 988.5 kg/m3
263.2 kPa | 988.6 kg/m3 and 988.5 kg/m3
263.7 kPa | 988.5 kg/m3
264.1 kPa | 988.5 kg/m3
264.3 kPa | 988.5 kg/m3
264.4 kPa | 988.6 kg/m3 and 988.5 kg/m3
265 kPa | 988.6 kg/m3
265.1 kPa | 988.5 kg/m3
265.3 kPa | 988.5 kg/m3
265.7 kPa | 988.5 kg/m3
266.2 kPa | 988.6 kg/m3
266.3 kPa | 988.5 kg/m3
266.4 kPa | 988.5 kg/m3 and 988.6 kg/m3
266.7 kPa | 988.5 kg/m3 and 988.6 kg/m3
266.9 kPa | 988.6 kg/m3
267.1 kPa | 988.6 kg/m3
267.4 kPa | 988.4 kg/m3
267.7 kPa | 988.6 kg/m3
267.9 kPa | 988.5 kg/m3
268.3 kPa | 988.5 kg/m3
268.6 kPa | 988.5 kg/m3 and 988.4 kg/m3
268.8 kPa | 988.5 kg/m3
269 kPa | 988.4 kg/m3
269.1 kPa | 988.5 kg/m3
270 kPa | 988.5 kg/m3
270.2 kPa | 988.5 kg/m3
270.7 kPa | 988.6 kg/m3
271 kPa | 988.6 kg/m3
271.2 kPa | 988.5 kg/m3
271.4 kPa | 988.6 kg/m3
271.6 kPa | 988.6 kg/m3
272.1 kPa | 988.6 kg/m3 and 988.5 kg/m3
272.4 kPa | 988.6 kg/m3
274.2 kPa | 988.6 kg/m3
274.7 kPa | 988.6 kg/m3 and 988.5 kg/m3
275 kPa | 988.5 kg/m3
275.2 kPa | 988.5 kg/m3
275.6 kPa | 988.5 kg/m3
275.7 kPa | 988.6 kg/m3
275.9 kPa | 988.5 kg/m3
276.1 kPa | 988.4 kg/m3
276.4 kPa | 988.6 kg/m3
276.8 kPa | 988.4 kg/m3 and 988.5 kg/m3
277.3 kPa | 988.5 kg/m3
277.5 kPa | 988.5 kg/m3
277.6 kPa | 988.5 kg/m3
278 kPa | 988.6 kg/m3
278.2 kPa | 988.5 kg/m3
278.3 kPa | 988.6 kg/m3
279 kPa | 988.4 kg/m3 and 988.5 kg/m3
279.2 kPa | 988.5 kg/m3
279.5 kPa | 988.6 kg/m3
279.9 kPa | 988.6 kg/m3
280.2 kPa | 988.5 kg/m3
280.6 kPa | 988.5 kg/m3
280.8 kPa | 988.6 kg/m3
280.9 kPa | 988.6 kg/m3
281.3 kPa | 988.5 kg/m3
281.8 kPa | 988.5 kg/m3
282 kPa | 988.6 kg/m3
282.3 kPa | 988.6 kg/m3
282.5 kPa | 988.6 kg/m3
282.7 kPa | 988.5 kg/m3
283.2 kPa | 988.5 kg/m3
283.5 kPa | 988.6 kg/m3
283.7 kPa | 988.5 kg/m3
283.9 kPa | 988.6 kg/m3
284.9 kPa | 988.6 kg/m3
285.3 kPa | 988.4 kg/m3
285.6 kPa | 988.6 kg/m3
286.1 kPa | 988.5 kg/m3 and 988.6 kg/m3
286.5 kPa | 988.6 kg/m3
287 kPa | 988.6 kg/m3
287.2 kPa | 988.6 kg/m3
287.5 kPa | 988.5 kg/m3
287.9 kPa | 988.5 kg/m3
288.6 kPa | 988.5 kg/m3
289.8 kPa | 988.5 kg/m3
290.7 kPa | 988.5 kg/m3
291 kPa | 988.6 kg/m3
291.5 kPa | 988.5 kg/m3
291.7 kPa | 988.6 kg/m3
